From patent EP4700023A1, “GLP-1R RECEPTOR AGONIST COMPOUND SALT AND CRYSTAL FORM THEREOF, PREPARATION METHOD THEREFOR AND USE THEREOF” (Chengdu Vincentage Pharma Co., Ltd., priority 2023, dated 2024)
Structures can show the parent of a compound that is named as a salt.

Experiments:
[1] = Comparison of crystal forms of the salt (behaviour during preparation); details: during the preparation process
[2] = Hygroscopicity test method (DVS); format: physicochemical; design: Sorption / Desorption / Hysteresis: unit not given here; details: for Hygroscopicity (80% RH) / Hygroscopicity (80% RH), description in words: 25°C, DVS; for Desorption / Sorption / Hysteresis: onset temperature 24.9°C
Description: Hygroscopicity test method (DVS): The hygroscopicity of the sample was measured using SMS Intrinsic Plus. The sample was weighed into a sample pan, equilibrated at 25°C until dm/dt was less than 0.002%, and then measured in time mode. The humidity was adjusted from 60%-90%-0%-90%-0% RH, with increments of 10% RH per step, and each humidity level was maintained for 1 hour.

[3] = Purity test after storage in an oven at set temperature (stability); format: physicochemical; details: for Purity, Onset: Onset (before storage)
Description: Purity test: The sample to be tested was dissolved in a methanol solution, and the sample purity was measured by HPLC.

[4] = Compressibility test (tableting, XRPD detection); format: physicochemical; details: compressed into tablets
[5] = Grindability test (mortar, XRPD detection); format: physicochemical; details: for Grindability (mortar 5 min), solid form: XRPD
Description: Grindability test: An appropriate amount of the crystal compound to be tested was placed in a mortar and ground for 2 min and 5 min, followed by XRPD detection.

Solubility test = format: physicochemical; details: thermodynamic from solid, water, 37°C, HPLC
Description: Approximately 10 mg of the crystal compound was weighed and added to 3 mL of water, shaken, and maintained at 37°C.

[6] = Pharmacokinetic evaluation in rats; format: in vivo; details: Rat PK, 10 mg/kg
Description: Rats were used as test animals, and the plasma drug concentrations at different time points after gavage administration of the test sample were measured. The pharmacokinetic behavior of the compound of the present disclosure in rats was studied to evaluate its metabolic characteristics. For each experimental group, 3 rats with similar body weights were selected and orally administered a single dose of 10 mg/kg. […] Pharmacokinetic parameter calculations were performed using metabolic kinetic data analysis software WinNonlin 7.0 by non-compartmental analysis (NCA) based on plasma concentration data.
A test sample with a final preparation concentration (based on the content of the compound of formula I) of 1.0 mg/mL was prepared for oral administration, using a 0.5% CMC Na aqueous solution as the preparation solvent.
Administration: After overnight fasting (12 hours), rats were administered by gavage at a dose of 10 mg/kg.
The blood samples were placed in heparinized sample tubes, and centrifuged at 4°C and 3500 rpm for 10 minutes to separate plasma, which was then stored at -20°C. Food was provided 2 hours after administration.
Determination of the content of the compound to be tested in rat plasma after gavage administration: After thawing plasma samples at room temperature, 300 µL of internal standard (terfenadine 200 ng/mL, acetonitrile) was added to each sample. The mixtures were vortexed for 1 min and then centrifuged at 4°C and 15400 rpm for 10 min. The supernatant was diluted 20-fold with 80% acetonitrile-water and then injected for LC/MS/MS analysis.

[7] = Purity test after storage in an oven at set temperature (stability); format: physicochemical
[8] = Tableting and grinding test (XRPD, FIG. 21 to 25); format: physicochemical; details: first and second tableting at 20 MPa, tableting at 40 MPa, grinding for 1, 3 and 5 minutes; FIG. 24, 25
Description: Grindability test: An appropriate amount of the crystal compound to be tested was placed in a mortar and ground for 2 min and 5 min, followed by XRPD detection. […]

[9] = Cycle 2, target humidity 0.0 % P/P0
[10] = Cycle 2, target humidity 10.0 % P/P0
[11] = Cycle 2, target humidity 20.0 % P/P0
[12] = Cycle 2, target humidity 30.0 % P/P0
[13] = Cycle 2, target humidity 40.0 % P/P0
[14] = Cycle 2, target humidity 50.0 % P/P0
[15] = Cycle 2, target humidity 60.0 % P/P0
[16] = Cycle 2, target humidity 70.0 % P/P0
[17] = Cycle 2, target humidity 80.0 % P/P0
[18] = Cycle 2, target humidity 90.0 % P/P0
[19] = Target humidity 60.0 % P/P0, first cycle
[20] = Target humidity 70.0 % P/P0, first cycle
[21] = Target humidity 80.0 % P/P0, first cycle
[22] = Target humidity 90.0 % P/P0, first cycle

C1COCCO1.NC(CO)(CO)CO.O=C(O)c1ccc2nc(CN3CCC(c4ccccc4OCc4ccc(Cl)cc4F)CC3)n(CC3CCO3)c2c1 [Crystal form B of the 1,4-dioxane solvate of the 2-amino-2-(hydroxymethyl)-1,3-propanediol salt of (S)-2-((4-(2-((4-chloro-2-fluorobenzyl)oxy)phenyl)piperidin-1-yl)methyl)-1-(oxetan-2-aminomethyl)-1H-benzo[d]imidazole-6-carboxylate]
Crystal form stability during preparation [1]: unstable, prone to crystal form transformation during preparation

O=C(O)c1ccc2nc(CN3CCC(c4ccccc4OCc4ccc(Cl)cc4F)CC3)n(C[C@@H]3CCO3)c2c1 [Compound of formula I]
Hygroscopicity (80% RH) [2]: 0.25% | Hygroscopicity (80% RH), description in words [2]: 10 to 90% RH linear reversible | Purity, 2 to 8°C (6 months) ([3]; HPLC): 82.49% | Purity, Onset ([3]; HPLC): 99.15% | Thermal stability ([3]; conclusion from Table 13, degrades under heating or room temperature): poor thermal stability | Purity, 60°C (7 day) ([3]; oven, HPLC): 99.15% | Purity, 80°C (result after 30 days) ([3]; oven, 80 °C for 30 days (footnote c), HPLC): 70.18% | Compressibility (20 Mp) [4]: Significant reduction in crystallinity, amorphization | Grindability (mortar 5 min), purity change [5]: 6.5% | Grindability (mortar 5 min), solid form [5]: Amorphous | solubility at 24 h (Solubility test): < 1 µg/mL | AUC(0-inf) ([6]; plasma, oral (PO)): 401 ng·h/mL | AUC(0-t) ([6]; plasma, oral (PO)): 396 ng·h/mL | Cmax ([6]; plasma, oral (PO)): 154 ng/mL | Tmax ([6]; plasma, oral (PO)): 40 min | half-life ([6]; plasma, oral (PO)): 65.4 min | Solid form after 80°C (result after 30 days) ([7]; 80 °C for 30 days (footnote c)): amorphous

O=C(O)c1ccc2nc(CN3CCC(c4ccccc4OCc4ccc(Cl)cc4F)CC3)n(C[C@@H]3CCO3)c2c1 [Crystal form A of the monohydrate of the compound of formula] [Crystal form A of the monohydrate of the 2-amino-2-(hydroxymethyl)-1,3-propanediol salt of (S)-2-((4-(2-((4-chloro-2-fluorobenzyl)oxy)phenyl)piperidin-1-yl)methyl)-1-(oxetan-2-aminomethyl)-1H-benzo[d]imidazole-6-carboxylate]
Hygroscopicity (80% RH) [2]: 0.34% | Hygroscopicity (80% RH), description in words [2]: Slightly hygroscopic | Desorption [2, 9]: 0.0112 | Sorption [2, 9]: 0.0000 | Desorption [2, 10]: 0.1186 | Hysteresis [2, 10]: 0.0161 | Sorption [2, 10]: 0.1025 | Desorption [2, 11]: 0.1641 | Hysteresis [2, 11]: 0.0175 | Sorption [2, 11]: 0.1466 | Desorption [2, 12]: 0.1996 | Hysteresis [2, 12]: 0.0182 | Sorption [2, 12]: 0.1814 | Desorption [2, 13]: 0.2286 | Hysteresis [2, 13]: 0.0145 | Sorption [2, 13]: 0.2141 | Desorption [2, 14]: 0.2611 | Hysteresis [2, 14]: 0.0167 | Sorption [2, 14]: 0.2443 | Desorption [2, 15]: 0.2923 | Hysteresis [2, 15]: 0.0177 | Sorption [2, 15]: 0.2746 | Desorption [2, 16]: 0.3219 | Hysteresis [2, 16]: 0.0176 | Sorption [2, 16]: 0.3043 | Desorption [2, 17]: 0.3457 | Hysteresis [2, 17]: 0.0099 | Sorption [2, 17]: 0.3458 | Desorption [2, 18]: 0.3759 | Sorption [2, 18]: 0.3759 | Desorption ([2]; Target humidity 0.0 % P/P0, first cycle): 0.0000 | Desorption ([2]; Target humidity 10.0 % P/P0, first cycle): 0.1080 | Desorption ([2]; Target humidity 20.0 % P/P0, first cycle): 0.1542 | Desorption ([2]; Target humidity 30.0 % P/P0, first cycle): 0.1894 | Desorption ([2]; Target humidity 40.0 % P/P0, first cycle): 0.2213 | Desorption ([2]; Target humidity 50.0 % P/P0, first cycle): 0.2553 | Desorption [2, 19]: 0.2989 | Hysteresis [2, 19]: 0.0002 | Sorption [2, 19]: 0.2896 | Desorption [2, 20]: 0.3213 | Hysteresis [2, 20]: 0.0053 | Sorption [2, 20]: 0.3160 | Desorption [2, 21]: 0.3490 | Hysteresis [2, 21]: 0.0064 | Sorption [2, 21]: 0.3426 | Desorption [2, 22]: 0.3817 | Sorption [2, 22]: 0.3817 | Purity, 2 to 8°C (6 months) ([3]; HPLC): 99.90% | Purity, Onset ([3]; HPLC): 99.95% | Purity, 60°C (7 day) ([3]; oven, HPLC): 99.90% | Purity, 80°C (1 day) ([3]; oven, 80°C, 1 day, HPLC): 99.35% | Compressibility (20 Mp) [4]: Crystal form unchanged | Grindability (mortar 5 min), purity change [5]: purity unchanged | Grindability (mortar 5 min), solid form [5]: Crystalline form unchanged | Oral absorption ([6]; compared with the free acid): significantly better oral absorption than the compound of formula I (free acid) | Crystallinity after tableting and grinding [8]: basically stable | Solid form after 80°C (1 day) ([7]; 80°C, 1 day): retained the crystal form
